Results as given in patent US20240408059A1, “METHOD OF TREATING ADDICTION” (Anebulo Pharmaceuticals, Inc., priority 2021, published 2024).

What was measured:
CYP3A4 [1] = molecular target: T1, CYP3A4 (Homo sapiens, UniProt P08684); settings: CYP3A4 inhibitors increase the concentrations of both drugs; cited from earlier work
[2] = Half-life of Compound 2 (once daily dosing, steady state); type: in vivo; settings: accumulation enables slow onset; 24 h coverage in steady state with once daily dosing
Method: (§1) In steady state, the patient has 24 h coverage despite convenient once daily dosing. […] Both antidepressants and drug withdrawal can decrease the seizure threshold.

Seizure liability = settings: in vivo
Method: as §1

[3] = Compound 2 in treatment of cannabis use disorder (CUD) / cannabis withdrawal; type: in vivo, human
Excerpt: Compound 2 is used in a combination treatment for cannabis use disorder (CUD). Combinations include use of antidepressants (specifically sedating antidepressants, such as mirtazapine or trazodone), antipsychotics, CB1 agonists such as THC and allosteric CB1 modulators such as Cannabidiol. These agents improve the safety profile of a CB1 inhibitor as described herein, such as compound 2, and lessen the burden of the withdrawal symptoms.
The benefits of a combination therapy comprising compound 2 and a sedating antidepressant, such as Mirtazapine or Trazodone, are outline in Table 1 below.
Daily doses such as between about 5 mg and about 100 mg of Compound 2 are efficacious in CUD. Doses of 1-50 mg or 20 to 30 mg may also be used. Compound 2 is also evaluated in combination with daily doses of Mirtazapine at about 15 mg to about 45 mg, or daily doses of Trazodone at about 50 mg to about 400 mg. Mirtazapine is given at bedtime. In another embodiment, Compound 2 and Mirtazapine are formulated and administered as a single oral dosage form, such as a tablet or a capsule.

CYP3A4 [4] = molecular target: T1, CYP3A4; experiment: Drug-drug interactions, CYP3A4 inhibition; type: in vitro ADME
Method: as §1

[5] = patients taking the drug long term; vs 5%; cited from earlier work

T1 sequence (P08684 whole entry): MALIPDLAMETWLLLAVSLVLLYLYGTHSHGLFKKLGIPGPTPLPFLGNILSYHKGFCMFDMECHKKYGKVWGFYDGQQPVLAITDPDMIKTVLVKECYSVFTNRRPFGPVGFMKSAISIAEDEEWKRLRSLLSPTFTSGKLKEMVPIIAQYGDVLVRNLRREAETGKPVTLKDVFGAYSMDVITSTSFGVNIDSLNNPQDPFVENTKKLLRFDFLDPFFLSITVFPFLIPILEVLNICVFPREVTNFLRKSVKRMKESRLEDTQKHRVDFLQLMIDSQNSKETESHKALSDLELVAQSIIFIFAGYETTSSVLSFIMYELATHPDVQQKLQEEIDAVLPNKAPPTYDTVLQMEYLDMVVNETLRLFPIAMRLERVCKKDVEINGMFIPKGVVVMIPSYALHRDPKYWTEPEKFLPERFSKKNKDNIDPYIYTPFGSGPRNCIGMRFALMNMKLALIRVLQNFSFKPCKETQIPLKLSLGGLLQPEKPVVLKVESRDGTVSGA

SMILES: CN1CCN2c3ncccc3Cc3ccccc3C2C1 (stereo not shown) [Mirtazapine]
- metabolizing enzyme (CYP3A4 [1]): metabolized by CYP3A4

SMILES: O=c1n(CCCN2CCN(c3cccc(Cl)c3)CC2)nc2ccccn12 [Trazodone]
- metabolizing enzyme (CYP3A4 [1]): metabolized by CYP3A4

SMILES: CC(C)(C)NC(=O)N1CC(O[C@H](c2ccc(Cl)cc2)c2ccccc2C(F)(F)F)C1 [Compound 2, (R)—N-(tert-butyl)-3-((4-chlorophenyl)(2-(trifluoromethyl)phenyl)methoxy)azetidine-1-carboxamide]
- half-life [2]: Long half-life
- seizure liability (Seizure liability): Lack of seizure liability
- Effect of Compound 2 on anxiety (withdrawal symptoms) ([3]; cannabis withdrawal): Increases anxiety
- Effect of Compound 2 on high probability of THC use/relapse: anti-addictive properties ([3]; cannabis withdrawal): has anti-addictive
- Effect of Compound 2 on high probability of THC use/relapse: getting high ([3]; cannabis withdrawal): Blocks getting high +
- Effect of Compound 2 on mood ([3]; cannabis withdrawal): Depressed mood
- Effect of Compound 2 on sleep problems (withdrawal symptoms) ([3]; cannabis withdrawal): Increases sleep
- Effect of Compound 2 on weight ([3]; cannabis withdrawal): Weight loss
- efficacy in CUD ([3]; daily doses between about 5 mg and about 100 mg): efficacious
- drug-drug interactions, particularly CYP3A4 inhibition (CYP3A4 [4]): Lack of drug-drug interactions, particularly CYP3A4 inhibition

SMILES: Cc1c(C(=O)NN2CCCCC2)nn(-c2ccc(Cl)cc2Cl)c1-c1ccc(Cl)cc1 [Rimonabant]
- incidence of depression [5]: 9%
